According to EP2407164A1, “Copper II complexes of phenanthroline and their use in cancer treatment” (Dublin Institute of Technology Intellectual Property Ltd, priority 2010, dated 2012):
Numbered stars: 1 amine (or outer) side, 2 acyl side, 3 side chain; on linkers, the order of the positions; unused ones are H or OH. Bridge positions count the residues as written; N and C are the ends. Square brackets hold non-standard residues; d marks the D form. Peptide text beside a SMILES is read from it. I, II: the chains in the order shown. Actinocin(9to1) = Cc1c2oc3c(C)ccc(C(=O)[*:1])c3nc-2c(C(=O)[*:2])c(N)c1=O; NMeV = CN[CH](C(=O)O)C(C)C; Sar = CNCC(=O)O

Columns and labels:
HT29 [1] = test: MTT cytotoxicity assay, complexes 1-6; type: cell-based, Human; details: 24 hr exposure, mean of three independent experiments +/- standard error
Method: (§1) Human colon cancer cell line, HT29 (passage 17 to 30, ATCC, USA), was grown in McCoys's 5a medium supplemented with 2mM L-glutamine and fetal bovine serum (FBS) 10% and containing 100U/ ml penicillin and 100µg / ml streptomycin at 37°C in a humidified atmosphere with 5% CO2 Human Breast Cancer cell line, MCF-7 (passage 16 to 26, ATCC, USA) was grown in Eagle's minimum essential medium containing 2mM L-glutamine, 100U/ ml penicillin,100µg/ ml streptomycin, FBS (10%), 1mM sodium pyruvate and 1% (v/v) non essential amino acids at 37°C in a humidified atmosphere with 5% CO2 Human prostate cancer cell line, DU145 (passage 12 to 29, ATCC, USA) was grown in Eagle's minimum essential medium containing 2mM L-glutamine, 100U/ ml penicillin, 100µg/ ml streptomycin, FBS (10%), 1mM sodium pyruvate and 1% (v/v) non essential amino acids at 37°C in a humidified atmosphere with 5% CO2. All drugs were tested by MTT assay following 24-hour exposure of cells to each compound. Each value represents the mean IC50 of three independent experiments +/- standard error.
(§2) MTT Assay. This method is based on the reduction of the tetrazolium salt, methylthiazolyldiphenyl-tetrazolium bromide (MTT) into a crystalline blue formazan product by the cellular oxidoreductases of viable cells. The resultant formazan crystal formation is proportional to the number of viable cells. Cells were seeded at 4x 10^5 cells/ml in 96-well plates and incubated at 37°C in 5% CO2 for 24 hours. Cells were treated with a four log range of concentration of the test compounds in triplicate from 0.1 to 500 µM or with a solvent control (0.5% DMSO) in complete medium. Following 24 h incubation, cells were incubated with 20 µl of MTT (5 mg/ml) in 0.1 M PBS, pH 7.4 at 37 °C in a humid atmosphere with 5% CO2 for 4 h. Media was then gently aspirated from test cultures and 100 µL of dimethyl sulphoxide (DMSO) was added to all wells. The plates were then shaken for 2 min and the absorbance was read at 550 nm in a Varioscan plate reader. The IC50 was defined as the concentration of test compound required to reduce the absorbance of the MTT-formazan crystals by 50%, indicating 50% cell deactivation.

MCF-7 = test: MTT cytotoxicity assay, complexes 1-6; type: cell-based, Human; details: 24 hr exposure, mean of three independent experiments +/- standard error
Method: as §1, §2

DU145 = test: MTT cytotoxicity assay, complexes 1-6; type: cell-based, Human; details: 24 hr exposure, mean of three independent experiments +/- standard error
Method: as §1, §2

SK-OV-3 = test: MTT cytotoxicity assay, complexes 1-6; type: cell-based, Human; details: SK-OV-3 ovarian cancer, 24 hr exposure, mean of three independent experiments +/- standard error
Method: as §2
Cu(II) bis-phen complexes 4-6 display rapid, low micomolar toxicities against all tumor lines. […] It should be noted that 6 is dinuclear and so contains two active copper units, which may explain this heightened potency.

poly[d(G-C)]2 = test: DNA-ethidium fluorescence quenching; type: binding; details: Q = equivalent concentration required to reduce fluorescence by 50%; 2.0 µM EtBr, 20 µM DNAp, 2 mM NaOAc buffer, 9.3 mM NaCl, pH 5.0
Method: (§3) DNA-Ethidium Fluorescence Quenching. Working solutions containing 20 µM poly[d(AT)]2 (ε260 = 13,100 M(bp)^-1 cm^-1), poly[d(G-C)]2 (ε260 = 16,800 M(bp)^-1 cm^-1) and CT-DNAp (ε260 = 12,824 M(bp)^-1 cm^-1) along with 2.0 µM Et in NaOAc buffer (2 mM NaOAc, 9.3 mM NaCl, 0.1 mM Na2EDTA, pH = 5.0) were prepared. Subsequent experimental steps are identical to the displacement experiment with the exception that a fluorescence reading of 200 arbitrary units with measurements being recorded over a 20-s interval was used. From a plot of the fluorescence vs added drug concentration, the Q values is given by the concentration required to effect 50% removal of the initial fluorescence.

poly[d(A-T)]2 = test: DNA-ethidium fluorescence quenching; type: binding; details: Q = equivalent concentration required to reduce fluorescence by 50%; 2.0 µM EtBr, 20 µM DNAp, 2 mM NaOAc buffer, 9.3 mM NaCl, pH 5.0
Method: as §3

CT-DNA = test: Competitive ethidium bromide displacement; type: binding, calf; details: 1.2 µM EtBr, 1 µM CT-DNAp, pH 7.0; for Kapp (apparent binding constant): Kapp = Ke x 1.26/C50 where Ke = 9.5 x 10^6 M(bp)^-1; for IC50: final volume 2 mL, 10 mM TES, 0.1 mM Na2EDTA, read-out: C50 = concentration required to reduce fluorescence by 50%
Method: Competitive Ethidium Displacement. […] Complexes 4-6, actinomycin D, pentamidine isethionate were prepared at 2.0 mM in DMSO. Two millilitres of DNA-Et solution were placed in a 10-mm quartz cuvet (3 mL) and positioned in a temperature controlled (20°C) spectrofluorometer (Perkin Elmer LS55B Luminescence Spectrometer). Excitation and emission wavelengths were set to 546 and 595 nm, respectively. After thermal equilibrium was established the emission and excitation slits were modified to give a fluorescence reading of 50 arbitrary units with measurements being recorded over a 20-s interval. An aliquot of complex or drug solution was taken (0.5 - 10 µL), was added to the cuvette and after equilibration the fluorescence reading was recorded. Repeated aliquots were added until the fluorescence was 20-40% of the initial control. Triplicate titrations were preformed and the apparent binding constants were calculated using Kapp = Ke x 1.26/C50 where Ke = 9.5 x 10^6 M(bp)^-1.

[2] = Solubility in organic solvents; details: DMSO/DMF
SW620 = test: MTT cytotoxicity assay, complex 7; type: cell-based; details: SW620 (Dukes' C) colon cancer line, 24 hr
Method: (§4) For cytotoxicity evaluation HT29, SW480 and SW620 cell lines were employed; all the cell lines were grown in RPMI 1640 media (Fischer). All media were supplemented with 10% foetal bovine serum (FBS) and 45 IU/ml penicillin and 45 µg/ml streptomycin and cells were maintained at 37 °C in a 5% CO2 humidified incubator.
(§5) For sterilisation samples were filtered with a 0.2 micron cellulose acetate filter. For cytotoxicological evaluation all samples were prepared fresh on the day of exposure. A stock concentration of test compound was prepared in the exposure media (10% DMEM F-12) necessary for the cell line under test. This sample was vortexed to ensure a uniform dispersion of the compound under test.
(§6) For cytotoxicity assays cells were seeded in 96-well microplates (Nunc, Denmark) at a density of 1 x 10^5 cells/ml for the 24 hr test, 5 x10^4 cells/ml for the 48 hr test and 3 x 10^4 cells/ml for the 96 hr test. […] After 24 h of cell attachment, plates were washed with 100 µl/well phosphate buffered saline (PBS) and the cells were treated with increasing concentrations of each compound for 24 h. Six replicate wells were used for each control and test concentration per microplate. Following the desired time of compound exposure, control medium or test exposures were removed, the cells were rinsed with PBS and 100 µl of fresh medium (without FBS or supplements) was added to each well. 10 µl of MTT (5 mg/ml) prepared in PBS was then added to each well and the plates were incubated for 3 h at 37°C in a 5% CO2 humidified incubator. After this incubation period the medium was discarded, the cells were washed with 100 µl of PBS and 100 µl of DMSO was added to each well to extract the dye. The plate was shaken at 240 rpm for 10 min and the absorbance was measured at 570 nm.
(§7) At least three independent experiments were conducted in triplicate for each cell line and toxicity endpoint. […] Control values were set as 100%. Differences between samples and the control were evaluated using the statistical analysis package SPSS 14.0. Statistically significant differences were set at p≤0.05.

SW480 = test: MTT cytotoxicity assay, complex 7; type: cell-based; details: SW480 (Dukes' B) colon cancer line, 24 hr
Method: as §4, §5, §6, §7

HT29 [3] = test: MTT cytotoxicity assay, complex 7; type: cell-based, Human; details: HT29 colon cancer line, 24 hr
Method: as §4, §5
For cytotoxicity assays cells were seeded in 96-well microplates (Nunc, Denmark) at a density of 1 x 10^5 cells/ml for the 24 hr test, 5 x10^4 cells/ml for the 48 hr test and 3 x 10^4 cells/ml for the 96 hr test. […] After 24 h of cell attachment, plates were washed with 100 µl/well phosphate buffered saline (PBS) and the cells were treated with increasing concentrations of each compound for 24 h. […] The plate was shaken at 240 rpm for 10 min and the absorbance was measured at 570 nm.
At least three independent experiments were conducted in triplicate for each cell line and toxicity endpoint. […] Differences between samples and the control were evaluated using the statistical analysis package SPSS 14.0. […]

[4] = Homo sapiens, HT-29, HT29 colon cancer
[5] = Homo sapiens, MCF7, MCF-7 breast cancer
[6] = Homo sapiens, DU-145, DU145 prostate cancer

| Compound | IC50 (HT29 [1]; HT29 colon cancer) | IC50 (MCF-7; MCF-7 breast cancer) | IC50 (DU145; DU145 prostate cancer) | IC50 (SK-OV-3) | IC50 (poly[d(G-C)]2) | IC50 (poly[d(A-T)]2) | Kapp (apparent binding constant) (CT-DNA) | IC50 (CT-DNA) | IC50 (HT29 [1]; [4]) | IC50 (MCF-7; [5]) | IC50 (DU145; [6]) | IC50 (SK-OV-3; Homo sapiens) | other results |
| --- | --- | --- | --- | --- | --- | --- | --- | --- | --- | --- | --- | --- | --- |
| N.N.[Cl][Pt][Cl] [Cisplatin, reference compound] | 349 ± 80.6 µM | 90.8 ± 3.5 µM | > 500 µM | > 500 µM | – | – | – | – | – | – | – | – | – |
| O.O.O.O.O.O=C([O-])c1cccc(C(=O)[O-])c1.[Cu+2].c1cnc2c(c1)ccc1cccnc12.c1cnc2c(c1)ccc1cccnc12 [Complex 5, [Cu(isoph)(phen)2]5H2O] | 5.8 ± 0.2 µM | 41.2 ± 1.4 µM | 10.6 ± 2.2 µM | 6.6 ± 0.4 µM | 37.3 µM | 20.9 µM | 1.20x10^5 M(bp)^-1 | 99.8 µM | – | – | – | – | Solubility [2]: DMSO/DMF |
| Cc1c2oc3c(C)ccc(C(=O)NC4C(=O)NC(C(C)C)C(=O)N5CCCC5C(=O)N(C)CC(=O)N(C)C(C(C)C)C(=O)OC4C)c3nc-2c(C(=O)NC2C(=O)NC(C(C)C)C(=O)N3CCCC3C(=O)N(C)CC(=O)N(C)C(C(C)C)C(=O)OC2C)c(N)c1=O (stereo not drawn) [actinomycin D, reference compound] (I: TVP[Sar][NMeV] / II: TVP[Sar][NMeV]; ester I:1-I:C, II:1-II:C; linker I:N-II:N via Actinocin(9to1); configuration not given here) | – | – | – | – | 4.25 µM | 314 µM | 9.69 x 10^5 M(bp)^-1 | 12.3 µM | – | – | – | – | – |
| O=C(O)c1cccc(C(=O)O)c1 [isophH2, isophthalic acid, reference compound] | – | – | – | – | – | – | – | – | > 500 µM | > 500 µM | > 500 µM | > 500 µM | – |
| O=C1c2c(O)ccc(O)c2C(=O)c2c(NCCNCCO)ccc(NCCNCCO)c21 [mitoxantrone, reference compound] | – | – | – | – | – | – | – | – | 8 ± 0.6 µM | 7.5 ± 0.2 µM | 27.3 ± 5.6 µM | 54.5 ± 2.6 µM | – |
| N=C(N)c1ccc(OCCCCCOc2ccc(C(=N)N)cc2)cc1 [pentamidine, reference compound] | – | – | – | – | 203 µM | 44.9 µM | 6.07x10^5 M(bp)^-1 | 19.7 µM | – | – | – | – | – |
| O=C(O)c1ccccc1C(=O)O [phH2, phthalic acid, reference compound] | – | – | – | – | – | – | – | – | > 500 µM | > 500 µM | > 500 µM | > 500 µM | – |
| c1cnc2c(c1)ccc1cccnc12 [phen, 1,10-phenanthroline] | – | – | – | – | – | – | – | – | 377 ± 9.2 µM | 338 ± 64.7 µM | 272 ± 8 µM | 286 ± 28.5 µM | Activity LD50 (SW620): >100 µM; Activity LD50 (SW480): >100 µM; Activity LD50 (HT29 [3]): >100 µM |
| O=C(O)c1ccc(C(=O)O)cc1 [terphH2, terephthalic acid, reference compound] | – | – | – | – | – | – | – | – | > 500 µM | > 500 µM | > 500 µM | > 500 µM | – |
| [Cu(ph)(phen)2]8H2O [Complex 4] | 6 ± 0.4 µM | 44.9 ± 7 µM | 11.6 ± 4.5 µM | 6.7 ± 0.4 µM | 69.8 µM | 26.2 µM | 1.21x10^5 M(bp)^-1 | 99.1 µM | – | – | – | – | Solubility [2]: forms only suspensions in DMSO/DMF |
| {[Cu(isoph)(H2O)3]2H2O}n [Complex 2] | > 500 µM | 401 ± 54.1 µM | 422 ± 22.4 µM | 436 ± 29.4 µM | – | – | – | – | – | – | – | – | Solubility [2]: DMSO/DMF |
| {[Cu(ph)(H2O)]}n [Complex 1] | > 500 µM | > 500 µM | > 500 µM | > 500 µM | – | – | – | – | – | – | – | – | – |
| {[Cu(tereph)(H2O)3]2H2O}n [Complex 3] | > 500 µM | 414 ± 26 µM | > 500 µM | > 500 µM | – | – | – | – | – | – | – | – | – |
